What was measured:
Experiment in all cases: Antimicrobial activity, agar dilution, exposure-time test
Assay type in all cases: cell-based
Details in all cases: after 10, 20, 40 and 60 minutes at all dilutions 1:100 to 1:800
Candida albicans = tested on: Candida albicans
Method: (§1) The antibacterial properties of the synthesized compound of 12-bromo-2,16-dioxapentacyclo[7.7.5.0^1,21.0^3,8.0^10,15]henicosa3(8),10,12,14-tetraene-7,20-dione were studied by the method of agar dilution. Test solutions of each compound was prepared in concentration of 1% using dimethylformamide as a solvent. Then they were diluted in physiological solution to obtain the final experimental dilutions of 1:100, 1:200, 1:400, and 1:800. The effect of these substances were compared with furacillin in a controllable study. The testing microbes used were gram positive bacteria Staphylococcus aureus, gram negative bacteria Pseudomonas aeruginosa, Escherichia coli, and Candida albicans fungus. The experiments used for this survey were meat-pentonlu agar (EPA) for cultivation of bacteria and Saburo environment for fungi. Each experiment used 1 mL of test solution on each plate for 500 minutes. Two drops of emulsified with microbes feel were added. All experimental samples were taken from the agar after 10, 20, 40, 60 minutes in the environment on the basis of Patrk planted. Bacteria were cultivated at a temperature of 37° C. for 1 day and the mushroom was kept in a thermostat for […] at a temperature of 28° C. Then results were checked. Those of the control and the antimicrobial activity for the synthesized compounds are listed in Table 1 below, with furacillin serving as a reference.

Escherichia coli = tested on: Escherichia coli
Method: as §1

Pseudomonas aeruginosa = tested on: Pseudomonas aeruginosa
Method: as §1

Staphylococcus aureus = tested on: Staphylococcus aureus
Method: as §1

Measured: inhibition activity compared with Furacilin

O=C1CCCC2=C1C1c3cc(Br)ccc3OC3(CCCC(=O)C13)O2 (stereo not shown) [12-bromo-2,16-dioxapentacyclo[7.7.5.0^1,21.0^3,8.0^10,15]henicosa3(8),10,12,14-tetraene-7,20-dione]
higher inhibition activity: all assays above

Source: patent US11932655B1, “12-bromo-2,16-dioxapentacyclo[7.7.5.01,21.03,8.010,15]henicosa3(8),10,12,14-tetraene-7,20-dione as an antimicrobial compound” (KING FAISAL UNIVERSITY, priority 2023, dated 2024)
